Source: ChEMBL document CHEMBL5050844 (2019)

Key:
Type in all cases: functional, T cell line
[1] = Induction of anti-CD3/CD28 antibodies-stimulated human T cell activation at 0.3 uM assessed fold increase in IL-2 secretion measured by ELISA assay
[2] = Induction of anti-CD3 antibodies-stimulated human T cell activation at 8 uM assessed fold increase in CD25 expression measured by ELISA assay; further: reference of the scale not given here
[3] = Induction of anti-CD3/CD28 antibodies-stimulated human T cell activation at 4 uM assessed fold increase in CD25 expression measured by ELISA assay
[4] = Induction of anti-CD3 antibodies-stimulated human T cell activation at 1 uM assessed fold increase in CD25 expression measured by ELISA assay; further: reference of the scale not given here
[5] = Induction of anti-CD3/CD28 antibodies-stimulated human T cell activation at 0.3 uM assessed fold increase in CD25 expression measured by ELISA assay
[6] = Induction of anti-CD3/CD28 antibodies-stimulated human T cell activation at 4 uM assessed fold increase in IL-2 secretion measured by ELISA assay
[7] = Induction of anti-CD3/CD28 antibodies-stimulated human T cell activation at 1 uM assessed fold increase in IL-2 secretion measured by ELISA assay
[8] = Induction of anti-CD3 antibodies-stimulated human T cell activation at 1 uM assessed fold increase in IL-2 secretion measured by ELISA assay; further: reference of the scale not given here
[9] = Induction of anti-CD3 antibodies-stimulated human T cell activation at 8 uM assessed fold increase in IL-2 secretion measured by ELISA assay; further: reference of the scale not given here
[10] = Induction of anti-CD3/CD28 antibodies-stimulated human T cell activation at 1 uM assessed fold increase in CD25 expression measured by ELISA assay

Structure (SMILES): C[C@H](Cc1nncn1C)c1cccc(NC(=O)c2cc(S(C)(=O)=O)cc(C3CC3)n2)c1
- fold change (FC) [1]: 1.01
- fold change (FC) [2]: >=1.001
- fold change (FC) [3]: <=1
- fold change (FC) [4]: 0.801
- fold change (FC) [5]: 1.01
- fold change (FC) [6]: 1.01
- fold change (FC) [7]: 1.01
- fold change (FC) [8]: 0.101
- fold change (FC) [9]: >=0.201
- fold change (FC) [10]: 1.01

Structure (SMILES): Cc1cc(C)nc(C(=O)Nc2cccc([C@H](C)Sc3nncn3C)c2)c1
- fold change (FC) [1]: 2.51
- fold change (FC) [2]: 0.801
- fold change (FC) [3]: 1.01
- fold change (FC) [4]: <=0.6
- fold change (FC) [5]: 1.01
- fold change (FC) [6]: >=7.5
- fold change (FC) [7]: 5
- fold change (FC) [8]: <=0.05
- fold change (FC) [9]: <=0.05
- fold change (FC) [10]: 1.01

Structure (SMILES): CN1CCN(c2cc3c(c(C(F)(F)F)c2)CN(c2cccc([C@@](C)(F)C(F)(F)c4nncn4C)c2)C3=O)CC1
- fold change (FC) [1]: 1.01
- fold change (FC) [2]: >=1.001
- fold change (FC) [3]: 1.01
- fold change (FC) [4]: 0.601
- fold change (FC) [5]: 1.01
- fold change (FC) [6]: 2.51
- fold change (FC) [7]: 1.01
- fold change (FC) [8]: 0.051
- fold change (FC) [9]: 0.151
- fold change (FC) [10]: 1.01

Structure (SMILES): C[C@H](O)CNc1cc([C@H](C)Cc2nncn2C)cc(N2Cc3c(cccc3C(F)(F)F)C2=O)n1
- fold change (FC) [1]: 1.01
- fold change (FC) [2]: 0.601
- fold change (FC) [3]: 1.01
- fold change (FC) [4]: 0.601
- fold change (FC) [5]: 1.01
- fold change (FC) [6]: 1.01
- fold change (FC) [7]: 1.01
- fold change (FC) [8]: 0.051
- fold change (FC) [9]: 0.101
- fold change (FC) [10]: 1.01

Structure (SMILES): C[C@H](Cc1nncn1C)c1cccc(NC(=O)c2cc3cccn3cn2)c1
- fold change (FC) [1]: 1.01
- fold change (FC) [2]: 0.801
- fold change (FC) [3]: 1.01
- fold change (FC) [4]: 0.601
- fold change (FC) [5]: 1.01
- fold change (FC) [6]: 1.01
- fold change (FC) [7]: 1.01
- fold change (FC) [8]: 0.051
- fold change (FC) [9]: 0.101
- fold change (FC) [10]: 1.01

Structure (SMILES): Cc1cc(C(=O)Nc2cccc([C@H]3C[C@H]3c3nncn3C)c2)nc(C2CC2)n1
- fold change (FC) [1]: 1.01
- fold change (FC) [2]: >=1.001
- fold change (FC) [3]: 1.01
- fold change (FC) [4]: 0.801
- fold change (FC) [5]: 1.01
- fold change (FC) [6]: 5
- fold change (FC) [7]: 2.51
- fold change (FC) [8]: 0.101
- fold change (FC) [9]: >=0.201
- fold change (FC) [10]: 1.01

Structure (SMILES): C[C@H](Cc1nncn1C)c1ccnc(N2Cc3c(cccc3C(F)(F)F)C2=O)c1
- fold change (FC) [1]: <=1
- fold change (FC) [2]: <=0.6
- fold change (FC) [3]: 1.31
- fold change (FC) [4]: <=0.6
- fold change (FC) [5]: 1.01
- fold change (FC) [6]: 1.01
- fold change (FC) [7]: <=1
- fold change (FC) [8]: <=0.05
- fold change (FC) [9]: <=0.05
- fold change (FC) [10]: 1.01

Structure (SMILES): C[C@H](Cc1nncn1C)c1cccc(N2Cc3c(Br)cccc3C2=O)c1
- fold change (FC) [1]: 2.51
- fold change (FC) [2]: 0.801
- fold change (FC) [3]: 1.51
- fold change (FC) [4]: 0.801
- fold change (FC) [5]: 1.01
- fold change (FC) [6]: >=7.5
- fold change (FC) [7]: 5
- fold change (FC) [8]: >=0.201
- fold change (FC) [9]: >=0.201
- fold change (FC) [10]: 1.31

Structure (SMILES): Cc1nc(C(=O)Nc2cccc([C@H](C)Sc3nncn3C)c2)ccc1Cl
- fold change (FC) [1]: 2.51
- fold change (FC) [2]: 0.801
- fold change (FC) [3]: 1.01
- fold change (FC) [4]: <=0.6
- fold change (FC) [5]: <=1
- fold change (FC) [6]: >=7.5
- fold change (FC) [7]: 5
- fold change (FC) [8]: <=0.05
- fold change (FC) [9]: 0.051
- fold change (FC) [10]: 1.01

Structure (SMILES): C[C@@H](c1cccc(N2Cc3c(cccc3C(F)(F)F)C2=O)c1)C(F)(F)c1nncn1C
- fold change (FC) [1]: 1.01
- fold change (FC) [2]: 0.801
- fold change (FC) [3]: 1.01
- fold change (FC) [4]: 0.601
- fold change (FC) [5]: 1.01
- fold change (FC) [6]: 2.51
- fold change (FC) [7]: 1.01
- fold change (FC) [8]: <=0.05
- fold change (FC) [9]: 0.101
- fold change (FC) [10]: 1.01

Structure (SMILES): C[C@H](Cc1nncn1C)c1cccc(NC(=O)c2cc(S(N)(=O)=O)cc(C(F)(F)F)n2)c1
- fold change (FC) [1]: <=1
- fold change (FC) [2]: >=1.001
- fold change (FC) [3]: 1.01
- fold change (FC) [4]: 0.801
- fold change (FC) [5]: 1.01
- fold change (FC) [6]: 1.01
- fold change (FC) [7]: <=1
- fold change (FC) [8]: <=0.05
- fold change (FC) [9]: 0.051
- fold change (FC) [10]: 1.01

Structure (SMILES): C[C@H](Cc1nncn1C)c1cc(N[C@@H](C)CO)nc(N2Cc3c(cccc3C(F)(F)F)C2=O)c1
- fold change (FC) [1]: 1.01
- fold change (FC) [2]: >=1.001
- fold change (FC) [3]: 1.01
- fold change (FC) [4]: 0.601
- fold change (FC) [5]: 1.01
- fold change (FC) [6]: 2.51
- fold change (FC) [7]: 1.01
- fold change (FC) [8]: 0.051
- fold change (FC) [9]: 0.151
- fold change (FC) [10]: 1.01

Structure (SMILES): Cc1ccnn1CC(C)c1cccc(NC(=O)c2cccc(C(F)(F)F)n2)c1 (stereo not given)
- fold change (FC) [1]: <=1
- fold change (FC) [2]: <=0.6
- fold change (FC) [3]: 1.51
- fold change (FC) [4]: <=0.6
- fold change (FC) [5]: 1.51
- fold change (FC) [6]: 1.01
- fold change (FC) [7]: <=1
- fold change (FC) [8]: 0.051
- fold change (FC) [9]: 0.051
- fold change (FC) [10]: 1.31

Structure (SMILES): C[C@H](Cc1nncn1C)c1cccc(NC(=O)c2nc3c(C4CC4)cccc3[nH]2)c1
- fold change (FC) [1]: 1.01
- fold change (FC) [2]: 0.801
- fold change (FC) [3]: 1.01
- fold change (FC) [4]: 0.601
- fold change (FC) [5]: 1.01
- fold change (FC) [6]: 2.51
- fold change (FC) [7]: 1.01
- fold change (FC) [8]: 0.051
- fold change (FC) [9]: >=0.201
- fold change (FC) [10]: 1.01

Structure (SMILES): C[C@H](Cc1nncn1C)c1cccc(NC(=O)c2cc(C(=O)N3C[C@@H](O)[C@H](F)C3)ccn2)c1
- fold change (FC) [1]: <=1
- fold change (FC) [2]: 0.801
- fold change (FC) [3]: 1.31
- fold change (FC) [4]: 0.601
- fold change (FC) [5]: <=1
- fold change (FC) [6]: 2.51
- fold change (FC) [7]: 1.01
- fold change (FC) [8]: 0.151
- fold change (FC) [9]: >=0.201
- fold change (FC) [10]: 1.01

Structure (SMILES): CCn1cnnc1C[C@@H](C)c1cccc(NC(=O)c2cc(C(=O)N3C[C@@H](O)C[C@H]3C)ccn2)c1
- fold change (FC) [1]: <=1
- fold change (FC) [2]: 0.601
- fold change (FC) [3]: 1.01
- fold change (FC) [4]: 0.601
- fold change (FC) [5]: 1.01
- fold change (FC) [6]: 1.01
- fold change (FC) [7]: <=1
- fold change (FC) [8]: 0.151
- fold change (FC) [9]: 0.151
- fold change (FC) [10]: 1.01

Structure (SMILES): CC1CCc2c1n[nH]c2C(=O)Nc1cccc([C@H](C)Cc2nncn2C)c1 (stereo not given in full)
- fold change (FC) [1]: 1.01
- fold change (FC) [2]: >=1.001
- fold change (FC) [3]: 1.01
- fold change (FC) [4]: 0.601
- fold change (FC) [5]: <=1
- fold change (FC) [6]: 5
- fold change (FC) [7]: 2.51
- fold change (FC) [8]: 0.101
- fold change (FC) [9]: >=0.201
- fold change (FC) [10]: <=1

Structure (SMILES): Cc1cc(C(=O)Nc2cccc([C@H](C)Cc3nncs3)c2)nc(C2CC2)n1
- fold change (FC) [1]: 1.01
- fold change (FC) [2]: 0.801
- fold change (FC) [3]: 1.01
- fold change (FC) [4]: 0.601
- fold change (FC) [5]: 1.01
- fold change (FC) [6]: 5
- fold change (FC) [7]: 2.51
- fold change (FC) [8]: 0.101
- fold change (FC) [9]: >=0.201
- fold change (FC) [10]: 1.01

Structure (SMILES): C[C@H](Sc1nncn1C)c1ccnc(N2Cc3c(cccc3C(F)(F)F)C2=O)c1
- fold change (FC) [1]: 2.51
- fold change (FC) [2]: <=0.6
- fold change (FC) [3]: <=1
- fold change (FC) [4]: <=0.6
- fold change (FC) [5]: <=1
- fold change (FC) [6]: 2.51
- fold change (FC) [7]: 2.51
- fold change (FC) [8]: <=0.05
- fold change (FC) [9]: <=0.05
- fold change (FC) [10]: <=1

Structure (SMILES): COc1nc(C(=O)Nc2cccc([C@H](C)Sc3nncn3C)c2)cc2ccccc12
- fold change (FC) [1]: 2.51
- fold change (FC) [2]: 0.801
- fold change (FC) [3]: 1.01
- fold change (FC) [4]: <=0.6
- fold change (FC) [5]: <=1
- fold change (FC) [6]: >=7.5
- fold change (FC) [7]: 5
- fold change (FC) [8]: <=0.05
- fold change (FC) [9]: 0.051
- fold change (FC) [10]: 1.01

Structure (SMILES): Cn1cnnc1[C@@H]1C[C@@H]1c1cccc(NC(=O)c2nc3c(C(F)(F)F)cccc3[nH]2)c1
- fold change (FC) [1]: 1.01
- fold change (FC) [2]: 0.801
- fold change (FC) [3]: 1.01
- fold change (FC) [4]: 0.601
- fold change (FC) [5]: 1.01
- fold change (FC) [6]: 2.51
- fold change (FC) [7]: 1.01
- fold change (FC) [8]: 0.101
- fold change (FC) [9]: >=0.201
- fold change (FC) [10]: 1.01

Structure (SMILES): Cc1conc1C[C@@H](C)c1cccc(NC(=O)c2ccnc(C(F)(F)F)n2)c1
- fold change (FC) [1]: 1.01
- fold change (FC) [2]: >=1.001
- fold change (FC) [3]: 1.01
- fold change (FC) [4]: 0.801
- fold change (FC) [5]: 1.01
- fold change (FC) [6]: 2.51
- fold change (FC) [7]: 1.01
- fold change (FC) [8]: 0.051
- fold change (FC) [9]: 0.101
- fold change (FC) [10]: 1.01
